Experimental data published in patent publication US20190209472A1, “FORMULATIONS FOR DERMAL DELIVERY OF POLYMER CONJUGATES OF INDOLOCARBAZOLE COMPOUNDS WITH REDUCED EXPOSURE” (Sienna Biopharmaceuticals, Inc., priority 2017, published 2019).
Read-outs that look alike come from different tables or passages of the source.

Key:
[1] = system: human keratinocyte
[2] = system: lesions of psoriasis vulgaris
Description: This was a Phase I, single-center, randomized, double-blind, placebo-controlled study in male and female patients with stable psoriasis vulgaris aged >18 and <71 years. Sixteen patients were enrolled in 2 treatment groups. […] Patients attended a screening visit within 21 days prior to Day 1. Patients were then admitted to the CPU in the afternoon of Day −1 and remained resident in the CPU until the morning of Day 8. Patients attended a follow-up visit 7 to 10 days after the last treatment administration on Day 7.
The ointment was applied by the CPU staff, using a spatula and finger cot.
Physicians Global Assessment (PGA) scores were assessed at screening, Day 1, Day 7 and at follow-up. Digital photographs of the application sites were also taken on admission to the CPU, Day 7 and at follow-up.

Substance: (9S, 10R, 12R)-10-(3′-mPEG2000-1′,3′-oxazolidine-2′,4′-dione)-2,3,9,10,11,12-hexahydro-9-methyl-1-oxo-9,12-epoxy-1H-diindolo[1,2,3-fg:3′,2′,1′-k,l]pyrrolo[3,4-i][1,6] benzodiazocine] [CT327]
- Inhibition of human keratinocyte proliferation in vitro [1]: clear inhibitory activity
- Complete resolution of plaque(s) ([2]; 7-day dosing period): No patients showed complete resolution
- PGA Erythma 1: FAINT ERYTHEMA, patients (%) ([2]; Plaque 1, DAY 1, N = 12): (16.7%)
- PGA Erythma 2: LIGHT RED COLOURATION, patients (%) ([2]; Plaque 1, DAY 1, N = 12): (66.7%)
- PGA Erythma 3: MODERATE RED COLOURATION, patients (%) ([2]; Plaque 1, DAY 1, N = 12): (8.3%)
- PGA Erythma 4: BRIGHT RED COLOURATION, patients (%) ([2]; Plaque 1, DAY 1, N = 12): (8.3%)
- PGA Induration 1: MINIMAL PLAQUE ELEVATION, =0.25 MM, patients (%) ([2]; Plaque 1, DAY 1, N = 12): (33.3%)
- PGA Induration 2: MILD PLAQUE ELEVATION, =0.5 MM, patients (%) ([2]; Plaque 1, DAY 1, N = 12): (41.7%)
- PGA Induration 3: MODERATE PLAQUE ELEVATION, =0.75 MM, patients (%) ([2]; Plaque 1, DAY 1, N = 12): (25.0%)
- PGA Scaling 2: MILD, FINE SCALE DOMINATES, patients (%) ([2]; Plaque 1, DAY 1, N = 12): (58.3%)
- PGA Scaling 3: MODERATE, COARSE SCALE PREDOMINATES, patients (%) ([2]; Plaque 1, DAY 1, N = 12): (33.3%)
- PGA Scaling 4: MARKED, THICK, NON-TENACIOUS SCALE DOMINATES, patients (%) ([2]; Plaque 1, DAY 1, N = 12): (8.3%)
- Physician Static Global Score 1: MINIMAL, patients (%) ([2]; Plaque 1, DAY 1, N = 12): (8.3%)
- Physician Static Global Score 2: MILD, patients (%) ([2]; Plaque 1, DAY 1, N = 12): (58.3%)
- Physician Static Global Score 3: MODERATE, patients (%) ([2]; Plaque 1, DAY 1, N = 12): (33.3%)
- PGA Erythma 1: FAINT ERYTHEMA, patients (%) ([2]; Plaque 1, DAY 7, N = 12): (16.7%)
- PGA Erythma 2: LIGHT RED COLOURATION, patients (%) ([2]; Plaque 1, DAY 7, N = 12): (66.7%)
- PGA Erythma 3: MODERATE RED COLOURATION, patients (%) ([2]; Plaque 1, DAY 7, N = 12): (8.3%)
- PGA Erythma 4: BRIGHT RED COLOURATION, patients (%) ([2]; Plaque 1, DAY 7, N = 12): (8.3%)
- PGA Induration 1: MINIMAL PLAQUE ELEVATION, =0.25 MM, patients (%) ([2]; Plaque 1, DAY 7, N = 12): (66.7%)
- PGA Induration 2: MILD PLAQUE ELEVATION, =0.5 MM, patients (%) ([2]; Plaque 1, DAY 7, N = 12): (33.3%)
- PGA Scaling 0: NO EVIDENCE OF SCALING, patients (%) ([2]; Plaque 1, DAY 7, N = 12): (8.3%)
- PGA Scaling 1: MINIMAL, OCCASIONAL FINE SCALE OVER LESS THAN 5% OF THE LESION, patients (%) ([2]; Plaque 1, DAY 7, N = 12): (58.3%)
- PGA Scaling 2: MILD, FINE SCALE DOMINATES, patients (%) ([2]; Plaque 1, DAY 7, N = 12): (33.3%)
- Physician Static Global Score 1: MINIMAL, patients (%) ([2]; Plaque 1, DAY 7, N = 12): (41.7%)
- Physician Static Global Score 2: MILD, patients (%) ([2]; Plaque 1, DAY 7, N = 12): (50.0%)
- Physician Static Global Score 3: MODERATE, patients (%) ([2]; Plaque 1, DAY 7, N = 12): (8.3%)
- PGA Erythma 1: FAINT ERYTHEMA, patients (%) ([2]; Plaque 1, FOLLOW-UP, N = 12): (33.3%)
- PGA Erythma 2: LIGHT RED COLOURATION, patients (%) ([2]; Plaque 1, FOLLOW-UP, N = 12): (58.3%)
- PGA Erythma 4: BRIGHT RED COLOURATION, patients (%) ([2]; Plaque 1, FOLLOW-UP, N = 12): (8.3%)
- PGA Induration 1: MINIMAL PLAQUE ELEVATION, =0.25 MM, patients (%) ([2]; Plaque 1, FOLLOW-UP, N = 12): (33.3%)
- PGA Induration 2: MILD PLAQUE ELEVATION, =0.5 MM, patients (%) ([2]; Plaque 1, FOLLOW-UP, N = 12): (66.7%)
- PGA Scaling 1: MINIMAL, OCCASIONAL FINE SCALE OVER LESS THAN 5% OF THE LESION, patients (%) ([2]; Plaque 1, FOLLOW-UP, N = 12): (16.7%)
- PGA Scaling 2: MILD, FINE SCALE DOMINATES, patients (%) ([2]; Plaque 1, FOLLOW-UP, N = 12): (58.3%)
- PGA Scaling 3: MODERATE, COARSE SCALE PREDOMINATES, patients (%) ([2]; Plaque 1, FOLLOW-UP, N = 12): (25.0%)
- Physician Static Global Score 1: MINIMAL, patients (%) ([2]; Plaque 1, FOLLOW-UP, N = 12): (16.7%)
- Physician Static Global Score 2: MILD, patients (%) ([2]; Plaque 1, FOLLOW-UP, N = 12): (75.0%)
- Physician Static Global Score 3: MODERATE, patients (%) ([2]; Plaque 1, FOLLOW-UP, N = 12): (8.3%)
- PGA Erythma 1: FAINT ERYTHEMA, patients (%) ([2]; Plaque 1, SCREENING, N = 12): (8.3%)
- PGA Erythma 2: LIGHT RED COLOURATION, patients (%) ([2]; Plaque 1, SCREENING, N = 12): (41.7%)
- PGA Erythma 3: MODERATE RED COLOURATION, patients (%) ([2]; Plaque 1, SCREENING, N = 12): (41.7%)
- PGA Erythma 4: BRIGHT RED COLOURATION, patients (%) ([2]; Plaque 1, SCREENING, N = 12): (8.3%)
- PGA Induration 1: MINIMAL PLAQUE ELEVATION, =0.25 MM, patients (%) ([2]; Plaque 1, SCREENING, N = 12): (33.3%)
- PGA Induration 2: MILD PLAQUE ELEVATION, =0.5 MM, patients (%) ([2]; Plaque 1, SCREENING, N = 12): (50.0%)
- PGA Induration 3: MODERATE PLAQUE ELEVATION, =0.75 MM, patients (%) ([2]; Plaque 1, SCREENING, N = 12): (8.3%)
- PGA Induration 4: MARKED PLAQUE ELEVATION, =1 MM, patients (%) ([2]; Plaque 1, SCREENING, N = 12): (8.3%)
- PGA Scaling 1: MINIMAL, OCCASIONAL FINE SCALE OVER LESS THAN 5% OF THE LESION, patients (%) ([2]; Plaque 1, SCREENING, N = 12): (16.7%)
- PGA Scaling 2: MILD, FINE SCALE DOMINATES, patients (%) ([2]; Plaque 1, SCREENING, N = 12): (33.3%)
- PGA Scaling 3: MODERATE, COARSE SCALE PREDOMINATES, patients (%) ([2]; Plaque 1, SCREENING, N = 12): (41.7%)
- PGA Scaling 4: MARKED, THICK, NON-TENACIOUS SCALE DOMINATES, patients (%) ([2]; Plaque 1, SCREENING, N = 12): (8.3%)
- Physician Static Global Score 1: MINIMAL, patients (%) ([2]; Plaque 1, SCREENING, N = 12): (16.7%)
- Physician Static Global Score 2: MILD, patients (%) ([2]; Plaque 1, SCREENING, N = 12): (41.7%)
- Physician Static Global Score 3: MODERATE, patients (%) ([2]; Plaque 1, SCREENING, N = 12): (33.3%)
- Physician Static Global Score 4: MARKED, patients (%) ([2]; Plaque 1, SCREENING, N = 12): (8.3%)
- PGA Erythma 2: LIGHT RED COLOURATION, patients (%) ([2]; Plaque 2, DAY 1, N = 12): (33.3%)
- PGA Induration 1: MINIMAL PLAQUE ELEVATION, =0.25 MM, patients (%) ([2]; Plaque 2, DAY 1, N = 12): (8.3%)
- PGA Induration 2: MILD PLAQUE ELEVATION, =0.5 MM, patients (%) ([2]; Plaque 2, DAY 1, N = 12): (16.7%)
- PGA Induration 3: MODERATE PLAQUE ELEVATION, =0.75 MM, patients (%) ([2]; Plaque 2, DAY 1, N = 12): (8.3%)
